Measurements as given in PMC5218480 (PLoS ONE, 2017).

Test system: MV-4-11 cells
Assay: Gene expression microarray analysis (Affymetrix PrimeView) and GSEA
Format: cell-based, human
Conditions: ProbeSet 11758779_at; LIST B

Nc1ncn([C@@H]2O[C@H](CO)[C@@H](O)[C@H]2O)c(=O)n1 [azacitidine]
RFU, TMEM50B: 84.99 RFU
